The supplement of paper PMC10307832

Experiments:
Test in all cases: relative viability (nuclei count vs DMSO), 5 days (fraction); higher = more cells survive
[1] = compound: CCN(CC)CCNC(=O)c1c(C)[nH]c(/C=C2\C(=O)Nc3ccc(F)cc32)c1C [Sunitinib] + CC(C)C[C@H](NC(=O)[C@H](Cc1ccccc1)NC(=O)c1cnccn1)B(O)O [Bortezomib] (partner 0.002 µM)
Procedure, shortened: (§1)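 A single step with final 0.05% Triton X-100, 1% formaldehyde and 1 ug/ml Hoechst fixed the cells and stained nuclei 5 days after treatment. Lung cancer cell lines in 1536-well plates had been treated by pin tool the day after seeding with one drug alone or a fixed anchor-drug dose plus five library-drug doses (not always all listed) in √10 steps, and nuclei were counted on 4× images. Relative viability is the ratio of nuclei in treated wells to nuclei in vehicle wells, taken as the median of duplicate plates.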

[2] = compound: CCN(CC)CCNC(=O)c1c(C)[nH]c(/C=C2\C(=O)Nc3ccc(F)cc32)c1C [Sunitinib] + CC1(C)CCC(c2ccc(Cl)cc2)=C(CN2CCN(c3ccc(C(=O)NS(=O)(=O)c4ccc(N[C@H](CCN5CCOCC5)CSc5ccccc5)c(S(=O)(=O)C(F)(F)F)c4)cc3)CC2)C1 [Navitoclax] (partner 0.5 µM)
Procedure, shortened: as §1

[3] = compound: CCN(CC)CCNC(=O)c1c(C)[nH]c(/C=C2\C(=O)Nc3ccc(F)cc32)c1C [Sunitinib] + CCNC(=O)c1noc(-c2cc(C(C)C)c(O)cc2O)c1-c1ccc(CN2CCOCC2)cc1 [Luminespib] (partner 0.01 µM)
Procedure, shortened: as §1

[4] = compound: CCN(CC)CCNC(=O)c1c(C)[nH]c(/C=C2\C(=O)Nc3ccc(F)cc32)c1C [Sunitinib] + Cc1nc(Nc2ncc(C(=O)Nc3c(C)cccc3Cl)s2)cc(N2CCN(CCO)CC2)n1 [Dasatinib] (partner 0.075 µM)
Procedure, shortened: as §1

Cell Line	relative viability ([1]; first compound 0.02 µM)	relative viability ([1]; first compound 0.06325 µM)	relative viability ([1]; first compound 0.2 µM)	relative viability ([1]; first compound 0.6325 µM)	relative viability ([1]; first compound 2 µM)	relative viability ([2]; first compound 0.02 µM)	relative viability ([2]; first compound 0.06325 µM)	relative viability ([2]; first compound 0.2 µM)	relative viability ([2]; first compound 2 µM)	relative viability ([3]; first compound 0.02 µM)	relative viability ([3]; first compound 0.06325 µM)	relative viability ([3]; first compound 0.2 µM)	relative viability ([3]; first compound 0.6325 µM)	relative viability ([3]; first compound 2 µM)	relative viability ([4]; first compound 0.02 µM)	relative viability ([4]; first compound 0.06325 µM)	relative viability ([4]; first compound 0.2 µM)	relative viability ([4]; first compound 0.6325 µM)	relative viability ([4]; first compound 2 µM)	relative viability ([2]; first compound 0.6325 µM)
SK-LU-1	0.959	1.26	1.38	1.36	0.982	0.768	0.6	0.796	0.727	0.21	0.187	0.21	0.216	0.2	0.179	0.185	0.176	0.171	0.161	
SW 1573	0.944	1.11	1.2	1.22	1	1.04	1.18	1.07	0.976	0.156	0.248	0.247	0.189	0.186	0.464	0.55	0.64	0.526	0.391	1.12
UMC-11	0.61		0.841	0.762	0.896	0.302	0.307	0.367	0.272	1.01	1.02	1.14	1.1	0.943	0.454	0.525	0.584	0.525	0.424	0.281
